Biological target: T1, MaPimE (Mycobacteroides abscessus, UniProt A0ABD7HTP3)
T1 construct: gene D2E76_03800; full-length WT, His-tagged, pNYCOMPSC23, E. coli BL21(DE3) pLysS; membrane fraction (kinetics) or DDM-purified in MSP1E3D1/POPC nanodiscs with Fab-E6 (cryo-EM); 46 kDa
Assay: cryo-EM structure of the complex, […] Å
Assay type: binding
Conditions: nanodisc, Fab-E6 bound; formed from added PPM; only first three prenyl units resolved

T1 sequence (A0ABD7HTP3 entry or part of it): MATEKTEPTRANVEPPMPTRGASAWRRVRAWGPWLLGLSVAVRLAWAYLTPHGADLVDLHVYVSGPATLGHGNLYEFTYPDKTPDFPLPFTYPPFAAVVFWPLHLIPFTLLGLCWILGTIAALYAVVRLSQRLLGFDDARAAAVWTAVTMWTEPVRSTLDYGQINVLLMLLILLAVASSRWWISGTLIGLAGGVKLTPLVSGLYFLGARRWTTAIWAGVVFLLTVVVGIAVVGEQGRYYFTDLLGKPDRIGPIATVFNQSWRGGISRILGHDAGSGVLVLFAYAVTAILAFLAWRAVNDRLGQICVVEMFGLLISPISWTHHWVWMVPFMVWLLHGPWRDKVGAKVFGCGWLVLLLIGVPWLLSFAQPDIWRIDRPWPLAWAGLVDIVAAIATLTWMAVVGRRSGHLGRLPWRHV

CC(C)=CCC/C(C)=C/CC/C(C)=C\CC/C(C)=C\CC/C(C)=C\CC/C(C)=C\CC/C(C)=C\CC/C(C)=C\CC/C(C)=C\CC/C(C)=C\COP(=O)(O)O [PP, polyprenyl phosphate]
cryo-EM structure of the complex, 3.5 Å: led us to interpret it as the PP portion of the PPM donor

Source: paper PMC12041525, “Mechanistic studies of mycobacterial glycolipid biosynthesis by the mannosyltransferase PimE” (Nature Communications, 2025)
